Measured values: PMC6631349 (Xenobiotica; the fate of foreign compounds in biological …, 2014)
Values belong to the compound of their own block, whether it stands above or below them.

How the values were obtained:
UGT1A4 = target: T1, UGT1A4 (Homo sapiens, UniProt P22310); assay: UGT1A4-catalyzed trifluoperazine; settings: recombinant human UGT1A4, probe trifluoperazine (TFP), 40 μM
T1 sequence (P22310 29-534): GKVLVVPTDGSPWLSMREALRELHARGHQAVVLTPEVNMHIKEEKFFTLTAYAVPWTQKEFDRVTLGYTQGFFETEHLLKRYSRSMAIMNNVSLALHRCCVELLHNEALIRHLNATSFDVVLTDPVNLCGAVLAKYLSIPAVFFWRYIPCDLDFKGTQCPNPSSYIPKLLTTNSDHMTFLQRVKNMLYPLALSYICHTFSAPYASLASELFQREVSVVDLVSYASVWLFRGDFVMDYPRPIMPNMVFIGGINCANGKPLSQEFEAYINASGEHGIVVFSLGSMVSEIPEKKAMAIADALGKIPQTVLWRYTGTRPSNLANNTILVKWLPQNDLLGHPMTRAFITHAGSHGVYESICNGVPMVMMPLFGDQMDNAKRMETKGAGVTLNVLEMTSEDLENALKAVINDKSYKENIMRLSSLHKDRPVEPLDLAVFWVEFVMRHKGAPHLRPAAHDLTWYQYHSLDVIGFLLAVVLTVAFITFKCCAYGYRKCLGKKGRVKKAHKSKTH

UGT1A3 = settings: ref Fang et al., 2014b; cited from earlier work
[1] = test system: multiple UGT isoforms, including UGT1A1, UGT1A3, UGT1A4, UGT1A7, UGT1A10, UGT2B7 and UGT2B15; settings: ref Fang et al., 2013b; cited from earlier work
UGT isoforms = assay: Initial screening towards all UGT isoforms; assay type: biochemical, human; settings: about 50 μM; isoforms not given
UGT1A6 [2] = target: T2, UGT1A6 (Homo sapiens, UniProt P19224); settings: Dixon and Lineweaver-Burk plots; 4-MU glucuronidation
T2 sequence (P19224 27-532): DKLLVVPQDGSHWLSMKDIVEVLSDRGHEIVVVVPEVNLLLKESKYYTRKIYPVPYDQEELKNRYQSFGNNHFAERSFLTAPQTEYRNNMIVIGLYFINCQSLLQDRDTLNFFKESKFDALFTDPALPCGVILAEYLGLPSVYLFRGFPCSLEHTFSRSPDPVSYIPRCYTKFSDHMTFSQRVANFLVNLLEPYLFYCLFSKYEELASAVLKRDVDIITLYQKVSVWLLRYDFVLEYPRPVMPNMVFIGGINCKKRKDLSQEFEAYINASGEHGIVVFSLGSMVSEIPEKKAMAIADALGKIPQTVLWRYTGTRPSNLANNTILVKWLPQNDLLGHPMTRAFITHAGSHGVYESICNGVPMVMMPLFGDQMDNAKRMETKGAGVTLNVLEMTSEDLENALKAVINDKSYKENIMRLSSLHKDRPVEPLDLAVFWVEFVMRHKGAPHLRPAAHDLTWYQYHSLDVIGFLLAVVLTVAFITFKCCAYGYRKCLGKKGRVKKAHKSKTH

UGT1A8 [3] = target: T3, UGT1A8 (Homo sapiens, UniProt Q9HAW9); settings: Dixon and Lineweaver-Burk plots; 4-MU glucuronidation
T3 sequence (Q9HAW9 26-530): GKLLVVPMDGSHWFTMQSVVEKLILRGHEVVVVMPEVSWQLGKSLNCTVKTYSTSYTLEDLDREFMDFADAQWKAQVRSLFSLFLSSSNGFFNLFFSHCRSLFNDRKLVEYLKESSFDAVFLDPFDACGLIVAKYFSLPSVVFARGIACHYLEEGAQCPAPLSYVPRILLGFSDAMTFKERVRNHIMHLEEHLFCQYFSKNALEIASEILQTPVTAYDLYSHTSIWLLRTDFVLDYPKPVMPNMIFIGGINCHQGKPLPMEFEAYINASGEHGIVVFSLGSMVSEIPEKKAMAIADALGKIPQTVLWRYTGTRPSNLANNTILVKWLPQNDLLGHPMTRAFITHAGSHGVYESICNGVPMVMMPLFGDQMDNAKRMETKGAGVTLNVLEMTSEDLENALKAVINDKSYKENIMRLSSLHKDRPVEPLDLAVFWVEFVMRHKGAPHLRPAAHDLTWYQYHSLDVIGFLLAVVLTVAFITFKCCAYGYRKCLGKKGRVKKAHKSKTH

UGT1A6 [4] = target: T2, UGT1A6; settings: 50 μM
UGT1A8 [5] = target: T3, UGT1A8; settings: 50 μM
UGT2B7 = target: T4, UGT2B7 (Homo sapiens, UniProt P16662); settings: 50 μM
T4 sequence (P16662 24-529): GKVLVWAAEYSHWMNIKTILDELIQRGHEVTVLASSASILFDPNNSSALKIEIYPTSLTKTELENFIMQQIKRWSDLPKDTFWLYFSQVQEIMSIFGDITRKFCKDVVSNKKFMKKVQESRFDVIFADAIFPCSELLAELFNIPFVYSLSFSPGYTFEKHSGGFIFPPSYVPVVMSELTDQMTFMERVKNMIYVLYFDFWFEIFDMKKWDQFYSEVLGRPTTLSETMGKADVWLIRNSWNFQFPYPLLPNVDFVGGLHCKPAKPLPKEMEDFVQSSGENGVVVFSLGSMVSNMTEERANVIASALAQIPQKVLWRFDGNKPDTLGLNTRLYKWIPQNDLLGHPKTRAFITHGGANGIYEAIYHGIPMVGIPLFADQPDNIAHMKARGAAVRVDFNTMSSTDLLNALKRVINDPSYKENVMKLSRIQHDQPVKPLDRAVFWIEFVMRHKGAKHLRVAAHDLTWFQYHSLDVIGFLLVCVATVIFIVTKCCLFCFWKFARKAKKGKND

UGTs = settings: ref Dragacci et al. (1987); cited from earlier work

activity at 20 min, 50 μM (UGT1A4): 60.4%
Compound: CCCCCCCC/C=C\CCCCCCCC(=O)OC[C@H](COP(=O)([O-])OCC[N+](C)(C)C)OC(=O)CCCCCCCCCCCCCCCCC [PC 18:1, 18:0, 1-oleoyl-2-stearoyl-sn-glycero-3-phosphocholine]

activity at 20 min, 50 μM (UGT1A4): 63.8%
Compound: CCCCCCCCCCCCCCCC(=O)OC[C@H](COP(=O)([O-])OCC[N+](C)(C)C)OC(=O)CCCCCCCCCCCCC [PC 16:0, 14:0, 1-palmitoyl-2-myristoyl-sn-glycero-3-phosphocholine]

activity at 20 min, 50 μM (UGT1A4): 49.8%
Compound: CCCCCCCC/C=C\CCCCCCCC(=O)OC[C@H](COP(=O)([O-])OCC[N+](C)(C)C)OC(=O)CCCCCCCCCCCCC [PC 18:1, 14:0, 1-oleoyl-2-myristoyl-sn-glycero-3-phosphocholine]

Compound: C[C@H](CCC(=O)O)[C@H]1CC[C@H]2[C@@H]3[C@H](O)C[C@@H]4C[C@H](O)CC[C@]4(C)[C@H]3C[C@H](O)[C@]12C [CA, cholic acid]
effect on the activity of UGT1A3 (in words) (UGT1A3): allosteric activation

Compound: CCCCC/C=C\C/C=C\C/C=C\C/C=C\CCCC(=O)O[C@H](COC(=O)CCCCCCCCCCCCCCCCC)COP(=O)([O-])OCC[N+](C)(C)C [PC 18:0, 20:4, 1-stearoyl-2-arachidonoyl-sn-glycero-3-phosphocholine]
activity at 20 min, 50 μM (UGT1A4): 52.1%

activity at 20 min, 50 μM (UGT1A4): 90%
Compound: CCCCCCCCCCCCCCCCCC(=O)O[C@H](COC(=O)CCCCCCCCCCCCCCC)COP(=O)([O-])OCC[N+](C)(C)C [PC 16:0, 18:0, 1-palmitoyl-2-stearoyl-sn-glycero-3-phosphocholine]

Compound: C[C@H](CCC(=O)NCCS(=O)(=O)O)[C@H]1CC[C@H]2[C@@H]3CC[C@@H]4C[C@H](O)CC[C@]4(C)[C@H]3CC[C@]12C [TLCA, taurolithocholic acid]
inhibitory effects towards multiple UGT isoforms (in words) [1]: strong inhibitory effects

Compound: CCCCCCCCCCCCCCCC(=O)OC[C@H](COP(=O)([O-])OCC[N+](C)(C)C)OC(C)=O [PC 16:0, 2:0, 1-palmitoyl-2-acetyl-sn-glycero-3-phosphocholine]
inhibition of activity of UGT isoforms (UGT isoforms): more than 90% | activity at 20 min, 50 μM (UGT1A4): 5.5% | inhibition at 20 min, 50 µM (UGT1A4): 94.5% | inhibition kinetic type towards UGT1A6 (UGT1A6 [2]): competitive inhibition | inhibition kinetic type towards UGT1A8 (UGT1A8 [3]): non-competitively inhibited

Compound: C[C@H](CCC(=O)NCC(=O)O)[C@H]1CC[C@H]2[C@@H]3[C@H](O)C[C@@H]4C[C@H](O)CC[C@]4(C)[C@H]3C[C@H](O)[C@]12C [GCA, glycocholic acid]
effect on the activity of UGT1A3 (in words) (UGT1A3): allosteric activation

Compound: CCCCCCCCCCCCCCCC(=O)OC[C@@H](O)COP(=O)([O-])OCC[N+](C)(C)C [LPC 16:0]
inhibition of activity of UGT isoforms (UGT isoforms): more than 90%

inhibition percentage of UGT1A6 activity (UGT1A6 [4]): 97.5% | inhibition percentage of UGT1A8 activity (UGT1A8 [5]): 98.7% | inhibition percentage of UGT2B7 activity (UGT2B7): 87.3%
Compound: CCCCCCCC/C=C\CCCCCCCC(=O)OC[C@@H](O)COP(=O)([O-])OCC[N+](C)(C)C [LPC 18:1]
inhibition of activity of UGT isoforms (UGT isoforms): more than 90% | increase for UGTs' activity (maximal regulation capability) (UGTs): approximately 4 fold

Compound: CCCCCCCC/C=C\CCCCCCCC(=O)OC[C@H](COP(=O)([O-])OCC[N+](C)(C)C)OC(=O)CCCCCCCCCCCCCCC [PC 18:1, 16:0, 1-oleoyl-2-palmitoyl-sn-glycero-3-phosphocholine]
activity at 20 min, 50 μM (UGT1A4): 52.6%

Compound: CCCCC/C=C\C/C=C\CCCCCCCC(=O)O[C@H](COC(=O)CCCCCCCCCCCCCCCCC)COP(=O)([O-])OCC[N+](C)(C)C [PC 18:0, 18:2, 1-stearoyl-2-linoleoyl-sn-glycero-3-phosphocholine]
activity at 20 min, 50 μM (UGT1A4): 54.3%

activity at 20 min, 50 μM (UGT1A4): 51.8%
Compound: CCCCCCCC/C=C\CCCCCCCC(=O)O[C@H](COC(=O)CCCCCCCCCCCCCCC)COP(=O)([O-])OCC[N+](C)(C)C [PC 16:0, 18:1, 1-palmitoyl-2-oleoyl-sn-glycero-3-phosphocholine]
